Several values for one entry are separate records, joined by “and”; a condition that tells them apart may be missing. Equal entries are not always repeated. Structures can show the parent of a compound that is named as a salt. Where two headings read alike, the source gives them in different places.
Key:
rat 5HT7 receptor = target: T1, rat 5HT7 receptor (Rattus norvegicus, UniProt P32305); experiment: Binding of [3H] LSD to rat 5HT7 receptor expressed in CHO cells
T1 construct: expressed in transfected cells; host or cells: CHO cells
T1 sequence (P32305 whole entry): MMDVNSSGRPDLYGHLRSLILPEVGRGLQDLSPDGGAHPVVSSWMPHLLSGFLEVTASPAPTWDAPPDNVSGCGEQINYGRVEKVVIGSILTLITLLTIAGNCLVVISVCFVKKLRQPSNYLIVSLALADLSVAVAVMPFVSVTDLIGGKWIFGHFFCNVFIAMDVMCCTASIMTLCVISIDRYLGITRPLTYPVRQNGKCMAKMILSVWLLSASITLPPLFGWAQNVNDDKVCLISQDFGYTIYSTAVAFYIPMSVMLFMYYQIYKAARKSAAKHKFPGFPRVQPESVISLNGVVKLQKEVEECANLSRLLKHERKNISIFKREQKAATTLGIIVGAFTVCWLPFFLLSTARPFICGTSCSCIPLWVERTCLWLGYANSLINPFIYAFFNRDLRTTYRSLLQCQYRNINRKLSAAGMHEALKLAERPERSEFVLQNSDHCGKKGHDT
Experimental: Binding of 2.0 nM [^3 H] LSD to a rat 5HT7 receptor expressed in CHO cells was measured for 60 minutes at 37° C. in 50 mM Tris-HCl buffer, pH 7.4, containing 10 mM MgCl2 and 0.5 mM EDTA. The reaction was terminated by rapid vacuum filtration onto glass fiber filters pretreated with 0.1% polyethyleneimine. Binding studies were made in duplicate in the absence of the drug and in the presence of between 6 and 8 concentrations of epinastine between 3 nM and 10 μM. Radioactivity trapped on the filters in the presence of each drug concentration was measured and compared with control values in order to ascertain interaction of the drug with the cloned 5-HT7 receptor site. Non-specific binding was determined in the presence of 5-carboxamidotryptamine (5-CT). The IC50 for the displacement of radiolabelled ligand was determined by graphical extrapolation and Ki values were calculated after correction for the radioligand occupancy shift by the Cheng and Prusoff equation (see Biochem. Pharmacol. 22, (1973): 3099-3108). Three experiments were carried out.

Male Wistar rats = system: Male Wistar rats
Experimental: Male Wistar rats weighing 175-190 g were anaesthetised with nembutal 50 mg/kg i.p. and the jugular vein was cannulated for injection of drugs. The animals were placed in a stereotaxic frame. Symmetrical boreholes were drilled 3.0 mm laterally and 3.2 mm posteriorly from bregma and the electrodes were lowered 9.5 mm from dura mater. The test compound epinastine or control solution were administered intravenously 10 min prior to electrical stimulation of the right trigeminal ganglion (5 min; 2.0 mA, 5 Hz, 5 ms duration and Evans blue (30 mg/kg i.v.), was given 5 min prior to electrical stimulation as a marker of plasma protein extravasation. 15 minutes after the end of the stimulation period the animals were perfused with 50 ml saline via the left cardiac ventricle to remove intravascular Evans blue. The dura mater was removed, blotted dry and weighed. Tissue Evans blue was extracted in 0.3 ml formamide at 50° C. for 24 h. Dye concentrations were measured with a spectrophotometer at 620 nm wavelength, interpolated on a standard curve and expressed as ng Evans blue content per mg tissue weight.
Extravasation was expressed as the quotient calculated by dividing the Evan's blue content of the stimulated side by the Evan's blue content of the unstimulated side. Results are expressed as means.

[1] = system: rats of the strain Chbb:THOM; experiment: animal or person; settings: for Mean value of pain threshold: 3 hours after yeast
Experimental: The method of Randall and Selitto was modified through use of the Analgesia meter by Basile of Milan.
Groups of 10 fasted rats of the strain Chbb:THOM (weight 110-140 g, 5 male 5 female) were dosed orally with it Natrosol 250 HX, 1 ml/100 g body weight, containing 0, 0.3, 1.0, 3.0 or 10 mg/kg epinastine (racemic mixture). 1 hour later the rats were injected subplantar with a suspension of yeast cells in a volume 0.1 ml into the right hind paw. 3 hours after injection of the yeast suspension, the pain threshold was determined by increasing the pressure on the inflamed paw until a sign of pain was produced. From the pain threshold measured after the different doses of the epinastine, linear regression analysis was used to determine an ED50.

[2] = individual values of the three experiments, read-out: Measured Ki values
[3] = mean of three experiments, 2.0 nM [3H] LSD, 60 minutes at 37° C., read-out: mean Ki value

NC1=NCC2c3ccccc3Cc3ccccc3N12 (single isomer, unassigned; (+)) [Epinastine (+) Enantiomer, (+)-3-Amino-9,13b-dihydro-1H-dibenz-[c,f]-imidazo[1,5a]-azepine-hydrochloride]
Ki (rat 5HT7 receptor; [2]): 45 nM and 18 nM and 22 nM | Ki (rat 5HT7 receptor; [3]): 28 nM

COc1ccc(CN(CCN(C)C)c2ccccn2)cc1 [Mepyramine]
Ki (rat 5HT7 receptor; [2]): 2660 nM and 747 nM and 1330 nM

CN1CCC(=C2c3ccccc3CC(=O)c3sccc32)CC1 [Ketotifen]
Ki (rat 5HT7 receptor; [2]): 406 nM and 572 nM and 331 nM

NC1=NCC2c3ccccc3Cc3ccccc3N12 (single isomer, unassigned; (-)) [Epinastine (-) Enantiomer, (-)-3-Amino-9,13b-dihydro-1H-dibenz-[c,f]-imidazo[1,5a]-azepine-hydrochloride]
Ki (rat 5HT7 receptor; [2]): 155 nM and 204 nM and 207 nM | Ki (rat 5HT7 receptor; [3]): 189 nM

NC1=NCC2c3ccccc3Cc3ccccc3N12 (racemic) [Epinastine, 3-amino-9,13b-dihydro-1H-dibenz[c,f]-imidazo[5,1-a]azepine hydrochloride]
Ki (rat 5HT7 receptor; Measured Ki values, individual values of the three experiments): 27 nM and 41 nM and 30 nM | Ki (rat 5HT7 receptor; mean Ki value, mean of three experiments, 2.0 nM [3H] LSD, 60 minutes at 37° C.): 33 nM | Quotient stimulated/non-stimulated side, mean (Male Wistar rats; epinastine 10 μg/kg i.v., mean of 7 animals (control mean 1.25)): 0.98 | Evans blue extravasation induced by electrical stimulation of the trigeminal ganglion (Male Wistar rats; result in words): significantly reduced | % Increase of pain threshold ([1]; 0.3 mg/kg p.o.): 9.6% | Mean value of pain threshold ([1]; 0.3 mg/kg p.o.): 164.8 g/hind paw | % Increase of pain threshold ([1]; 1.0 mg/kg p.o.): 56.4% | Mean value of pain threshold ([1]; 1.0 mg/kg p.o.): 235.2 g/hind paw | % Increase of pain threshold ([1]; 3.0 mg/kg p.o.): 72.5% | Mean value of pain threshold ([1]; 3.0 mg/kg p.o.): 259.4 g/hind paw | % Increase of pain threshold ([1]; 10.0 mg/kg p.o.): 81.4% | Mean value of pain threshold ([1]; 10.0 mg/kg p.o.): 272.8 g/hind paw | ED50 ([1]; Rattus norvegicus, po, read-out: ED50, dose required to increase the pain threshold by 50%): 1.1 mg/kg | pain threshold in inflamed rat paw ([1]; result in words): increased the pain threshold

Reference: patent publication US5942503A, “Use of Epinastine for the treatment of pain” (Boehringer Indelheim KG, priority 1995, dated 1999)
